EC50 data for 28 compounds are collected here from US20260356841A1, “HETEROCYCLIC PYRIDINONE COMPOUNDS AS TRIGGERING RECEPTOR EXPRESSED ON MYELOID CELLS 2 AGONISTS AND METHODS OF USE” (Vigil Neuroscience, Inc., priority 2023, published 2026).

pEC50: −log10 of the molar value. Bounds are passed on as bounds.

The target of the experiment is T1, human TREM2 (Homo sapiens, UniProt Q9NZC2).
T1 construct: expressed in transfected cells; host or cells: HEK293T (HEK293T-hTREM2 cells)
T1 sequence (Q9NZC2 19-230): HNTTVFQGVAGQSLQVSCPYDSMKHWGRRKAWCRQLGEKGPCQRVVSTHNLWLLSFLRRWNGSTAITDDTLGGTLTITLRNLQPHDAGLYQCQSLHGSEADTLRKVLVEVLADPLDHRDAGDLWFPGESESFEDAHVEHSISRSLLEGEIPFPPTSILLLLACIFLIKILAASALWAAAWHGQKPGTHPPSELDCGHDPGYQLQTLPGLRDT
T1 sequence (O43914 22-113 partner): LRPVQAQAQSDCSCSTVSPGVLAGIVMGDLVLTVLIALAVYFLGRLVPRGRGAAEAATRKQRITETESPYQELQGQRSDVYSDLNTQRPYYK
Briefly: TREM2 agonist potency by cellular phosphorylation of Spleen Tyrosine Kinase (Syk), AlphaLisa, HEK293T-hTREM2 cells. In kind it is cell-based. The note with it: hTREM2 EC50 Data (HEK293 Cells); Syk phosphorylation, AlphaLisa; read-out: hTREM2 EC50. The gist of the method:
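HEK293T cells co-expressing human TREM2 and DAP12, plated 20–24 h before use. Compounds applied 45 min at room temperature in assay buffer, then cells lysed and phospho-Syk quantified by AlphaLisa. Percent activation from a standard curve; EC50 from a four-parameter variable-slope fit.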
In the case of `Cc1nc2nc([C@H]3CCO[C@@H](c4ccc(=O)n(N5CC6C(C5)C6(F)F)c4)C3)nc(C34CC(C(F)(F)F)(C3)C4)c2nc1C` (stereo partly drawn) [Example 215, 1-(6,6-difluoro-3-azabicyclo[3.1.0]hexan-3-yl)-5-[(2R,4S)-4-[6,7-dimethyl-4-[3-(trifluoromethyl)-1-bicyclo[1.1.1]pentanyl]pteridin-2-yl]tetrahydropyran-2-yl]pyridin-2-one], the pEC50 was > 7.00.

Consider `C[C@@H]1CN(c2nc(-c3ccc(F)cc3F)c3sc(N(C)C)nc3n2)C[C@H](c2ccc(=O)n(N)c2)O1` [Example 174, 1-amino-5-[(2S,6R)-4-[7-(2,4-difluorophenyl)-2-(dimethylamino)thiazolo[4,5-d]pyrimidin-5-yl]-6-methyl-morpholin-2-yl]pyridin-2-one], for which the pEC50 was > 7.00.

In the case of `Cc1nc2nc([C@H]3CCO[C@@H](c4ccc(=O)[nH]c4)C3)nc(C34CC(C(F)(F)F)(C3)C4)c2nc1C(F)(F)F` [Example 355], the pEC50 is > 7.00.

`Cc1nc2nc([C@@H]3CCO[C@H](c4ccc(=O)n(C)c4)C3)nc(-c3ccc(C(F)(F)F)c(F)c3F)c2nc1C` [Example 19]: the pEC50 was > 7.00.

As to `COc1nc2c(C34CC(C(F)(F)F)(C3)C4)nc([C@H]3CCO[C@@H](c4ccc(=O)n(CC#N)c4)C3)nc2nc1C` [Example 145, 2-[5-[(2R,4S)-4-[6-methoxy-7-methyl-4-[3-(trifluoromethyl)-1-bicyclo-[1.1.1]pentanyl]pteridin-2-yl]tetrahydropyran-2-yl]-2-oxo-1-pyridyl]acetonitrile], the pEC50 was > 7.00.

For the compound `Cc1nc2nc([C@@H]3CCO[C@H](c4ccc(=O)n(C)c4)C3)cc(C34CC(C(F)(F)F)(C3)C4)c2nc1C` [Example 168, 1-methyl-5-[(2S,4R)-4-[2,3-dimethyl-8-[3-(trifluoromethyl)-1-bicyclo[1.1.1]pentanyl]pyrido[2,3-b]pyrazin-6-yl]tetrahydropyran-2-yl]pyridin-2-one], the pEC50 is > 7.00.

As to `Cc1nc2nc([C@@H]3CCO[C@H](c4ccc(=O)n(C)c4)C3)nc(-c3ccc(C(F)(F)F)cc3F)c2nc1C(F)F` [Example 127, 5-[(2S,4R)-4-[6-(difluoromethyl)-4-[2-fluoro-4-(trifluoromethyl)phenyl]-7-methyl-pteridin-2-yl]tetrahydropyran-2-yl]-1-methyl-pyridin-2-one], the pEC50 is > 7.00.

For the compound `Cc1nc2nc(C3CCO[C@@H](c4ccc(=O)n(N(C)C)c4)C3)nc(C34CC(C(F)(F)F)(C3)C4)c2nc1C(F)F` (stereo in doubt) [Example 220, 5-((2R,4R)-4-(6-(difluoromethyl)-7-methyl-4-(3-(trifluoromethyl)bicyclo[1.1.1]pentan-1-yl)pteridin-2-yl)tetrahydro-2H-pyran-2-yl)-1-(dimethylamino)pyridin-2(1H)-one], the pEC50 is > 7.00.

`COc1nc2c(-c3ccc(C(F)(F)F)cc3F)nc(C3CCOC(c4ccc(=O)n(C)c4)C3)nc2nc1C` (stereo not shown) [Example 131]: the pEC50 is > 7.00.

On to `Cc1cnc2c(C34CC(C(F)(F)F)(C3)C4)nc([C@H]3CCO[C@@H](c4ccc(=O)n(C)c4)C3)nc2n1` [Example 123, 1-methyl-5-((2R,4S)-4-(7-methyl-4-(3-(trifluoromethyl)bicyclo-[1.1.1]pentan-1-yl)pteridin-2-yl)tetrahydro-2H-pyran-2-yl)pyridin-2(1H)-one], for which the pEC50 is > 7.00.

Regarding `Cc1cc2c(-c3ccc(F)cc3F)nc(N3C[C@@H](C)O[C@@H](c4ccc(=O)n(N)c4)C3)cc2nc1C` [Example 193, 1-amino-5-[(2S,6R)-4-[5-(2,4-difluorophenyl)-2,3-dimethyl-1,6-naphthyridin-7-yl]-6-methyl-morpholin-2-yl]pyridin-2-one], the pEC50 was > 7.00.

In the case of `Cc1nc2nc([C@H]3CCO[C@@H](c4ccc(=O)n(C)c4)C3)nc(-c3ccc(C(F)(F)F)cc3F)c2nc1C` [Example 4, 1-methyl-5-[(2R,4S)-4-[4-[2-fluoro-4-(trifluoro-methyl)phenyl]-6,7-dimethyl-pteridin-2-yl]tetrahydropyran-2-yl]pyridin-2-one], the pEC50 was > 7.00.

In the case of `Cc1nc2nc([C@H]3CCO[C@@H](c4ccc(=O)n(NCC(F)F)c4)C3)nc(C34CC(C(F)(F)F)(C3)C4)c2nc1C` [Example 214, 1-((2,2-difluoroethyl)amino)-5-((2R,4S)-4-(6,7-dimethyl-4-(3-(trifluoromethyl)bicyclo[1.1.1]pentan-1-yl)pteridin-2-yl)tetrahydro-2H-pyran-2-yl)pyridin-2(1H)-one], the pEC50 is > 7.00.

With `Cc1nc2nc([C@@H]3CCO[C@H](c4ccc(=O)n(C)c4)C3)nc(-c3cc(F)c(C(F)(F)F)cc3F)c2nc1C` [Example 349], the pEC50 is < 6.30.

In the case of `[2H]C([2H])([2H])n1cc([C@H]2C[C@@H](c3nc(C45CC(C(F)(F)F)(C4)C5)c4nc(OC)c(C)nc4n3)CCO2)ccc1=O` [Example 147, 5-((2R,4S)-4-(6-methoxy-7-methyl-4-(3-(trifluoromethyl)-bicyclo[1.1.1]pentan-1-yl)pteridin-2-yl)tetrahydro-2H-pyran-2-yl)-1-(methyl-d3)pyridin-2(1H)-one], the pEC50 is > 7.00.

In the case of `Cc1nc2nc([C@@H]3CCO[C@@H](c4ccc(=O)n(C)c4)C3)nc(-c3ccc(Cl)cc3F)c2nc1C` (racemic) [Example 9, 1-methyl-5-[rac-(2R,4R)-4-[4-(4-chloro-2-fluoro-phenyl)-6,7-dimethyl-pteridin-2-yl]tetrahydropyran-2-yl]pyridin-2-one], the pEC50 is > 7.00.

Regarding `CN(C)c1nc2nc([C@H]3CCO[C@@H](c4ccc(=O)n(C)c4)C3)nc(C34CC(C(F)(F)F)(C3)C4)c2n1C` [Example 202, 5-((2R,4S)-4-(8-(dimethylamino)-7-methyl-6-(3-(trifluoromethyl)bicyclo[1.1.1]pentan-1-yl)-7H-purin-2-yl)tetrahydro-2H-pyran-2-yl)-1-methylpyridin-2 (1H)-one], the pEC50 is 6.30 to 7.00.

Turning to `Cc1nc2nc([C@@H]3CCO[C@H](c4ccc(=O)n(C)c4)C3)nc(-c3ccc(C(F)(F)F)cc3F)c2nc1C` [Example 5, 1-methyl-5-[(2S,4R)-4-[4-[2-fluoro-4-(trifluoromethyl)phenyl]-6,7-dimethyl-pteridin-2-yl]tetrahydropyran-2-yl]pyridin-2-one], the pEC50 is > 7.00.

Consider `C[C@@H]1CN(c2nc(-c3ccc(F)cc3F)c3sc(N(C)C)nc3n2)C[C@H](c2ccc(=O)[nH]c2)O1` [Example 173, 5-[(2S,6R)-4-[7-(2,4-difluorophenyl)-2-(dimethylamino)thiazolo[4,5-d]pyrimidin-5-yl]-6-methyl-morpholin-2-yl]-1H-pyridin-2-one], for which the pEC50 is > 7.00.

As for `Cc1nc2nc([C@@H]3CCO[C@H](c4ccc(=O)n(C)c4)C3)nc(-c3ccc(F)cc3F)c2nc1C` [Example 2, 5-[(2S,4R)-4-[4-(2,4-difluorophenyl)-6,7-dimethyl-pteridin-2-yl]tetrahydropyran-2-yl]-1-methyl-pyridin-2-one], the pEC50 is < 6.30.

Regarding `CNn1cc([C@H]2C[C@@H](c3nc(C45CC(C(F)(F)F)(C4)C5)c4cc(C(F)(F)F)c(C)nc4n3)CCO2)ccc1=O` [Example 338, 1-(methylamino)-5-((2R,4S)-4-(7-methyl-6-(trifluoromethyl)-4-(3-(trifluoromethyl)bicyclo-[1.1.1]pentan-1-yl)pyrido[2,3-d]pyrimidin-2-yl)tetrahydro-2H-pyran-2-yl)pyridin-2 (1H)-one], the pEC50 was > 7.00.

As to `Cc1cnc2c(C34CC(C(F)(F)F)(C3)C4)nc([C@H]3CCO[C@@H](c4ccc(=O)[nH]c4)C3)nc2n1` [Example 187, 5-((2R,4S)-4-(7-methyl-4-(3-(trifluoromethyl)bicyclo[1.1.1]pentan-1-yl)pteridin-2-yl)tetrahydro-2H-pyran-2-yl)pyridin-2(1H)-one], the pEC50 is 6.30 to 7.00.

`Cc1nc2nc([C@@H]3CCO[C@H](c4ccc(=O)n(C(C)C)c4)C3)nc(C34CC(C(F)(F)F)(C3)C4)c2nc1C` [Example 78, 1-isopropyl-5-[(2S,4R)-4-[6,7-dimethyl-4-[3-(trifluoromethyl)-1-bicyclo[1.1.1]-pentanyl]pteridin-2-yl]tetrahydropyran-2-yl]pyridin-2-one]: the pEC50 is > 7.00.

On to `[2H]C([2H])([2H])c1nc2nc(C3CCOC(c4ccc(=O)n(C([2H])([2H])[2H])c4)C3)nc(C34CC(C(F)(F)F)(C3)C4)c2nc1C([2H])([2H])[2H]` (stereo not shown) [Example 353], for which the pEC50 is > 7.00.

For the compound `C=CC(=O)Nn1cc([C@H]2C[C@@H](c3nc(C45CC(C(F)(F)F)(C4)C5)c4nc(C)c(C)nc4n3)CCO2)ccc1=O` [Example 213, N-[5-[(2R,4S)-4-[6,7-dimethyl-4-[3-(trifluoromethyl)-1-bicyclo[1.1.1]pentanyl]pteridin-2-yl]tetrahydropyran-2-yl]-2-oxo-1-pyridyl]prop-2-enamide], the pEC50 was > 7.00.

With `Cc1nc2nc(N3C[C@@H](C)O[C@@H](c4ccc(=O)n(C)c4)C3)nc(C34CC(C#N)(C3)C4)c2nc1C` [Example 205, 3-[6,7-dimethyl-2-[(2R,6S)-2-methyl-6-(1-methyl-6-oxo-3-pyridyl)morpholin-4-yl]pteridin-4-yl]bicyclo[1.1.1]pentane-1-carbonitrile], the pEC50 was > 7.00.

Turning to `Cc1nc2nc([C@H]3CCO[C@@H](c4ccc(=O)n(C)c4)C3)nc(C34CC(C(F)(F)F)(C3)C4)c2cc1C(F)(F)F` [Example 326, 1-methyl-5-[(2R,4S)-4-[7-methyl-6-(trifluoromethyl)-4-[3-(trifluoromethyl)-1-bicyclo[1.1.1]pentanyl]pyrido[2,3-d]pyrimidin-2-yl]tetrahydropyran-2-yl]pyridin-2-one], the negative logarithm of the EC50 (pEC50) is > 7.00.

Regarding `Cc1cc(-n2cc([C@H]3C[C@@H](c4nc(C56CC(C(F)(F)F)(C5)C6)c5nc(C)c(C)nc5n4)CCO3)ccc2=O)cs1` [Example 105, 5-((2R,4S)-4-(6,7-dimethyl-4-(3-(trifluoromethyl)bicyclo[1.1.1]pentan-1-yl)pteridin-2-yl)tetrahydro-2H-pyran-2-yl)-1-(5-methylthiophen-3-yl)pyridin-2 (1H)-one], the pEC50 is > 7.00.
